Data as given in patent US10729130B2, “Nematicidal compositions and methods of using them” (Eden Research plc, priority 2004, dated 2020).
Each block holds one molecule with its values, some of them ahead of it.

What was measured:
[1] = Solution levels of terpenes in water (true solution by shear blending); format: physicochemical; conditions: maximum level solubilized in water by solution-forming shear blending
root-knot nematodes = assay: Nematicidal activity of high purity versus low purity citral; format: in vivo, root-knot nematode; conditions: average of four replicates
Protocol: Compositions of regular and technical ciral at 250 and 125 ppm were produced in 1% Tween 80 and incubated with root-knot nematodes a in the same way as previously described. Observations of the kill rate (percentage dead) were made at 21 and 42 hours.
The results are shown below in Table 13 and are the average of four replicates.

[2] = Baker's YP loading of different terpenes and terpene mixtures; format: physicochemical; set-up: key to Free Terpene: +: “free terpene” refers to the visible presence of terpene in the centrifuged reaction mixture; −: The absence of free terpene indicates complete absorption of the terpene by the particles; conditions: for Free Terpene: Baker's YP 250 mg/ml 500 μl; for Vol. Loaded μl: approximate maximal terpene loading in Baker's YP; for % Loaded w/w: maximal loading in Baker's YP, ratio of terpene loaded to particle present, weight for weight
Protocol: (§1) Increasing volumes of terpene emulsion were mixed with 250 mg/ml Baker's YP or 250 mg/ml SAF Mannan™ overnight at room temperature as shown in Tables 27 and 28. Samples were centrifuged at 14,000×g for 10 minutes and the appearance of free terpene floating on the aqueous layer was scored. The highest volume of terpene emulsion absorbed by Baker's YP or SAF Mannan™ as evidenced by the absence of free terpene was recorded as the volume of absorbed terpene emulsion. Colour of encapsulated terpenes in the pellet was recorded.
(§2) Percentage loaded represents a ratio of the amount of terpene loaded to the amount of particle present (weight for weight).

[3] = SAF Mannan loading of different terpenes and terpene mixtures; format: physicochemical; set-up: key to Free Terpene: +: “free terpene” refers to the visible presence of terpene in the centrifuged reaction mixture; −: The absence of free terpene indicates complete absorption of the terpene by the particles; key to Free Terpene: phase inversion remark: Inverted = Phase Inverted - solids floating on top - no free oil; W = white; Y = yellow; conditions: for Free Terpene: SAF Mannan 500 μl (250 mg/ml), overnight, room temperature; for Vol. loaded (maximal terpene loading in SAF Mannan): approximate maximal loading, volume of terpene emulsion absorbed by SAF Mannan; for % Loaded w/w (maximal terpene loading in SAF Mannan): ratio of amount of terpene loaded to amount of particle present (weight for weight); for Free Terpene: phase inversion remark: SAF Mannan 500 μl, second line of the Free Terpene cell
Protocol: as §1, §2

[4] = Terpene stability: yellow colored oxidation product (colour of encapsulated terpene pellet); format: physicochemical; set-up: key to Colour: W = white; Y = yellow; sl = slight; int = intermediate
Protocol: Loading reactions were set up as shown in Table 25 and left to incubate overnight. Samples were centrifuged at 14,000×g for 10 minutes and the appearance of free terpene floating on the aqueous layer and the color of the encapsulated terpenes in the pellet was scored. The highest volume of terpene absorbed by particles as evidenced by the absence of free terpene was recorded as the volume of absorbed terpene emulsion. The reactions were incubated for 1, 3, 6, 9 and 24 hours at room temperature or 37° C. After incubation samples were centrifuged at 14,000×g for 10 minutes and the appearance of free terpene floating on the aqueous layer was scored. The highest volume of terpene absorbed by the particles as evidenced by the absence of free terpene was recorded as the volume of absorbed terpene emulsion. Colour of the encapsulated pellet was scored at 24 hours. Increasing volumes of terpene emulsion were mixed with 250 mg/ml Baker's YP or 250 mg/ml SAF Mannan™ overnight at room temperature as shown in Tables 27 and 28. Samples were centrifuged at 14,000×g for 10 minutes and the appearance of free terpene floating on the aqueous layer was scored. The highest volume of terpene emulsion absorbed by Baker's YP or SAF Mannan™ as evidenced by the absence of free terpene was recorded as the volume of absorbed terpene emulsion. Colour of encapsulated terpenes in the pellet was recorded.

[5] = emulsion 15 μl, 1% Tween-80 485 μl
[6] = emulsion 37.5 μl, 1% Tween-80 462.5 μl
[7] = emulsion 75 μl, 1% Tween-80 425 μl
[8] = emulsion 150 μl, 1% Tween-80 350 μl
[9] = emulsion 225 μl, 1% Tween-80 275 μl
[10] = emulsion 450 μl, 1% Tween-80 50 μl
[11] = terpene emulsion vol 15, 1% Tween-80 485 μl
[12] = terpene emulsion vol 37.5, 1% Tween-80 462.5 μl
[13] = terpene emulsion vol 75, 1% Tween-80 425 μl
[14] = terpene emulsion vol 150, 1% Tween-80 350 μl
[15] = terpene emulsion vol 225, 1% Tween-80 275 μl
[16] = terpene emulsion vol 450, 1% Tween-80 50 μl
[17] = Table 27, Baker's YP, emulsion 15 μl
[18] = Table 27, Baker's YP, emulsion 37.5 μl
[19] = Table 27, Baker's YP, emulsion 75 μl
[20] = Table 27, Baker's YP, emulsion 112.5 μl
[21] = Table 27, Baker's YP, emulsion 150 μl
[22] = Table 27, Baker's YP, emulsion 225 μl
[23] = Table 27, Baker's YP, emulsion 450 μl
[24] = colour of encapsulated terpene in pellet, SAF Mannan 500 μl, terpene emulsion vol 15
[25] = colour of encapsulated terpene in pellet, SAF Mannan 500 μl, terpene emulsion vol 37.5
[26] = colour of encapsulated terpene in pellet, SAF Mannan 500 μl, terpene emulsion vol 75
[27] = colour of encapsulated terpene in pellet, SAF Mannan 500 μl, terpene emulsion vol 112.5
[28] = colour of encapsulated terpene in pellet, SAF Mannan 500 μl, terpene emulsion vol 150
[29] = colour of encapsulated terpene in pellet, SAF Mannan 500 μl, terpene emulsion vol 225
[30] = colour of encapsulated terpene in pellet, SAF Mannan 500 μl, terpene emulsion vol 450

Molecule: C=C(C)C1CC=C(C)C(=O)C1 (stereo not shown) [Carvone]
- Solution Level [1]: 500 ppm

Molecule: CC(C)=CCCC(C)=CC=O [Citral (80% pure), citral]
- average percentage dead (root-knot nematodes; 125 ppm in 1% Tween 80, 21 h): 29%
- average percentage dead (root-knot nematodes; 125 ppm in 1% Tween 80, 42 h): 27%
- average percentage dead (root-knot nematodes; 250 ppm in 1% Tween 80, 21 h): 89%
- average percentage dead (root-knot nematodes; 250 ppm in 1% Tween 80, 42 h): 96%

Molecule: CC(C)=CCCC(C)=CC=O [Citral (98% pure), citral]
- average percentage dead (root-knot nematodes; 125 ppm in 1% Tween 80, 21 h): 23%
- average percentage dead (root-knot nematodes; 125 ppm in 1% Tween 80, 42 h): 22%
- average percentage dead (root-knot nematodes; 250 ppm in 1% Tween 80, 21 h): 87%
- average percentage dead (root-knot nematodes; 250 ppm in 1% Tween 80, 42 h): 87%

Molecule: C=CCc1ccc(O)c(OC)c1 [Eugenol]
- Free Terpene [2, 5]: −
- Free Terpene [2, 6]: −
- Free Terpene [2, 7]: −
- Free Terpene [2, 8]: +
- Free Terpene [2, 9]: +
- Free Terpene [2, 10]: +
- Vol. Loaded μl [2]: 75 µL
- % Loaded w/w [2]: 67% w/w
- Free Terpene [3, 11]: −
- Free Terpene [3, 12]: −
- Free Terpene [3, 13]: −
- Free Terpene [3, 14]: +
- Free Terpene [3, 15]: +
- Free Terpene [3, 16]: +
- Vol. loaded (maximal terpene loading in SAF Mannan) [3]: 112.5 µL
- % Loaded w/w (maximal terpene loading in SAF Mannan) [3]: 100% w/w
- Colour [4, 17]: W
- Colour [4, 18]: W
- Colour [4, 19]: W
- Colour [4, 20]: W
- Colour [4, 21]: W
- Colour [4, 22]: W
- Colour [4, 23]: W
- Colour [4, 24]: W
- Colour [4, 25]: W
- Colour [4, 26]: W
- Colour [4, 27]: W
- Colour [4, 28]: W
- Colour [4, 29]: W
- Colour [4, 30]: W

The remaining lines, values ahead:

- Solution Level [1]: 500 ppm
- Free Terpene [2, 5]: −
- Free Terpene [2, 6]: −
- Free Terpene [2, 7]: −
- Free Terpene ([2]; emulsion 112.5 μl, 1% Tween-80 387.5 μl): +
- Free Terpene [2, 8]: +
- Free Terpene [2, 9]: +
- Free Terpene [2, 10]: +
- Vol. Loaded μl [2]: 75 µL
- % Loaded w/w [2]: 67% w/w
- Free Terpene [3, 11]: −
- Free Terpene [3, 12]: −
- Free Terpene [3, 13]: −
- Free Terpene ([3]; terpene emulsion vol 112.5, 1% Tween-80 387.5 μl): −
- Free Terpene [3, 14]: −
- Free Terpene [3, 15]: −
- Free Terpene [3, 16]: +
- Free Terpene: phase inversion remark ([3]; terpene emulsion vol 225): Inverted
- Free Terpene: phase inversion remark ([3]; terpene emulsion vol 450): Inverted
- Vol. loaded (maximal terpene loading in SAF Mannan) [3]: 150 µL
- % Loaded w/w (maximal terpene loading in SAF Mannan) [3]: 133% w/w
- Colour [4, 17]: W
- Colour [4, 18]: W
- Colour [4, 19]: W
- Colour [4, 20]: W
- Colour [4, 21]: W
- Colour [4, 22]: W
- Colour [4, 23]: W
- Colour [4, 24]: W
- Colour [4, 25]: W
- Colour [4, 26]: W
- Colour [4, 27]: W
- Colour [4, 28]: W
- Colour [4, 29]: W
- Colour [4, 30]: W
Molecule: CC(C)=CCC/C(C)=C/CO [Geraniol]

- Solution Level [1]: 500 ppm
Molecule: CC(=O)/C=C/C1=C(C)CCCC1(C)C [b-ionone]

- Solution Level [1]: 500 ppm
Molecule: Terpeniol
